Assay results: patent US20130184280A1, “SUBSTITUTED THIAZOLES AS VEGFR2 KINASE INHIBITORS” (TELIK, INC., priority 2011, published 2013)
Values belong to the compound of their own block, whether it stands above or below them.

Assays:
[1] = target: T1, VEGFR2 kinase (Homo sapiens, UniProt P35968); assay: In Vitro VEGFR2 Kinase Assay; type: biochemical; conditions: FP; CSKtide substrate, 60 minutes at room temperature
T1 construct: purchased InVitrogen
Experimental: In Vitro VEGFR2 Kinase Assay
50 ng/well VEGFR2 kinase (from InVitrogen) was mixed in buffer (14.5 μL/well). To this were added, 0.5 μL of the compound of this invention at a concentration of 2.5% in DMSO. After incubatiuon for 5 minutes at room temperature, 5 μL of substrate (CSKtide, 400 nM) and 8 μL ATP were added. The mixture was incubated for 60 minutes at room temperature and 60 uL of binding reagent (beads) was added. After incubation overnight at room temperature, the plate was read with a LJL plate reader.

[2] = In Vitro Cytotoxicity Assay HCT116 (CellTiter-Glo); type: cell-based; conditions: human, HCT116 colon carcinoma cells, cultured three days
Experimental: (§1) The cell lines HL60 (human promyelocytic leukemia) and HCT116 (human colon carcinoma) were obtained from the American Type Culture Collection, Manassas, Va., U.S.A. All products were used in accordance with manufacturer's directions. The cytotoxicity assays were conducted in triplicate, in each case with solvent control.
(§2) Log-phase cells were trypsinized, collected by centrifugation, and resuspended in a small volume of fresh medium, and the density of viable cells was determined following Trypan Blue staining Cells were diluted in fresh media, the test compounds (concentrations between 0.1 μM and 200 μM, dissolved in DMSO, 50 μL) added immediately after dilution to achieve a final DMSO concentration of 0.5%, then the suspensions added at 150 μL/well to 96-well plates, and incubated overnight to allow attachment in the case of adherent cells. The cells were cultured for three days (about three doubling times). The cells were then collected by centrifugation, and 100 μL of the culture supernatant was replaced by the CellTiter-Glo reagent. After incubation for 15 minutes at room temperature, the plate was read with a luminometer. […] The table gives cytotoxicity IC50s in μm.

[3] = In Vitro Cytotoxicity Assay HL60 (CellTiter-Glo); type: cell-based; conditions: human, HL60 promyelocytic leukemia cells; HL 60 cells, cultured three days
Experimental: as §1, §2

T1 sequence (P35968 20-1356): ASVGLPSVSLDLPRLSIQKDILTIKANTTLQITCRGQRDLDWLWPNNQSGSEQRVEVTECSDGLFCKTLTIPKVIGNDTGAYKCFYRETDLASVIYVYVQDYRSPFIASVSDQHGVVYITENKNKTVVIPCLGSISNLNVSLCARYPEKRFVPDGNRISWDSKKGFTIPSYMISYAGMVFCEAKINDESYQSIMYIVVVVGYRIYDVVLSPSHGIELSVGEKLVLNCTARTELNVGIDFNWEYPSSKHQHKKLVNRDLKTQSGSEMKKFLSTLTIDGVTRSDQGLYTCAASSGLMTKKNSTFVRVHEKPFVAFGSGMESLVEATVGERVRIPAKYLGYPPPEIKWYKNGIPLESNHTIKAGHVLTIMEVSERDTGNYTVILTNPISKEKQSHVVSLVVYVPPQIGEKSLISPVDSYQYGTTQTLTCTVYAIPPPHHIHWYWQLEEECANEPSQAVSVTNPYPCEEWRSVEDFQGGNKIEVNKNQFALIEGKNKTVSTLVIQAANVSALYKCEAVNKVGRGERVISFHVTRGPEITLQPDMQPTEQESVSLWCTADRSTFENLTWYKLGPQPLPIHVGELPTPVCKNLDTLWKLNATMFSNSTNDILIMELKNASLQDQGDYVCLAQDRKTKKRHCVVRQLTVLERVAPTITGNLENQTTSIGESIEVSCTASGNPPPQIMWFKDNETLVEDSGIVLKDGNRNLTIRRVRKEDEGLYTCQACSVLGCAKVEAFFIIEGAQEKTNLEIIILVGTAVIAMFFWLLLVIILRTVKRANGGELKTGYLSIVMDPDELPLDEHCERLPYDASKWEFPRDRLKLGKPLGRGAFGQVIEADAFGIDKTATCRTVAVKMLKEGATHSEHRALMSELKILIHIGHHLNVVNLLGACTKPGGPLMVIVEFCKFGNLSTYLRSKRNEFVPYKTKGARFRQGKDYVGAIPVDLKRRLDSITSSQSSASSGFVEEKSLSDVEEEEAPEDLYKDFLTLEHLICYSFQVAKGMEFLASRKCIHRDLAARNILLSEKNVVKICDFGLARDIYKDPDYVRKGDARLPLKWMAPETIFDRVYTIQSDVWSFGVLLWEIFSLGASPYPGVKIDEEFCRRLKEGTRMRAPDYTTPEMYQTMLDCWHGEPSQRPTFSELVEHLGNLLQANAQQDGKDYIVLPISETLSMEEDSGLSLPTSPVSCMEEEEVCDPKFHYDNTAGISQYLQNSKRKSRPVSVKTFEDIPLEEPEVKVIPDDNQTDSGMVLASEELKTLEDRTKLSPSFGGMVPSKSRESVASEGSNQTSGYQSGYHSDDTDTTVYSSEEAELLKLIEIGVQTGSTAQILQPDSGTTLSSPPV

- IC50 [1]: 20 nM
SMILES: Nc1ncncc1-c1nc(-c2cccc(NC(=O)c3cccc(Cl)c3)c2)cs1 [Compound 6, N-(3-(2-(4-aminopyrimidin-5-yl)thiazol-4-yl)phenyl)-3-chlorobenzamide]
- IC50 at 3 days [3]: 3000 nM
- IC50 at 3 days [2]: > 50000 nM

- IC50 [1]: 40 nM
SMILES: Nc1ncncc1-c1nc(-c2cccc(NC(=O)Cc3ccccc3)c2)cs1 [Compound 45]
- IC50 at 3 days [2]: 30000 nM

- IC50 [1]: 30 nM
SMILES: Nc1ncncc1-c1nc(-c2cccc(NC(=O)Nc3ccccc3Cl)c2)cs1 [Compound 18]
- IC50 at 3 days [3]: 500 nM
- IC50 at 3 days [2]: 30000 nM

- IC50 [1]: 200 nM
SMILES: Nc1ncncc1-c1nc(-c2cccc(NC(=O)c3ccc([N+](=O)[O-])cc3)c2)cs1 [Compound 13]
- IC50 at 3 days [3]: > 50000 nM
- IC50 at 3 days [2]: > 50000 nM

- IC50 [1]: 70 nM
SMILES: Nc1ncncc1-c1nc(-c2cccc(NC(=O)c3ccc(Cl)cc3)c2)cs1 [Compound 8]
- IC50 at 3 days [3]: 300 nM
- IC50 at 3 days [2]: 20000 nM

- IC50 [1]: 50 nM
SMILES: Nc1ncncc1-c1nc(-c2cccc(NC(=O)Nc3ccccc3[N+](=O)[O-])c2)cs1 [Compound 33]
- IC50 at 3 days [2]: > 50000 nM

- IC50 [1]: 200 nM
SMILES: Nc1ncncc1-c1nc(-c2cccc(NC(=O)c3ccccn3)c2)cs1 [Compound 21]
- IC50 at 3 days [3]: 4000 nM
- IC50 at 3 days [2]: > 50000 nM

- IC50 [1]: 400 nM
SMILES: Cc1cccc(NC(=O)c2cccc(-c3csc(-c4cncnc4N)n3)c2)c1 [Compound 49]
- IC50 at 3 days [2]: 10000 nM

- IC50 [1]: 10 nM
SMILES: Cc1cccc(C(=O)Nc2cccc(-c3csc(-c4cncnc4N)n3)c2)c1 [Compound 41]
- IC50 at 3 days [2]: 20000 nM

- IC50 [1]: 10 nM
SMILES: Nc1ncncc1-c1nc(-c2cccc(NC(=O)Nc3ccccc3)c2)cs1 [Compound 4]
- IC50 at 3 days [3]: 200 nM
- IC50 at 3 days [2]: 6000 nM

- IC50 [1]: 400 nM
SMILES: CN(C)Cc1cccc(C(=O)Nc2cccc(-c3csc(-c4cncnc4N)n3)c2)c1 [Compound 55]
- IC50 at 3 days [3]: 400 nM
- IC50 at 3 days [2]: 2000 nM

- IC50 [1]: 40 nM
SMILES: COc1ccccc1NC(=O)Nc1cccc(-c2csc(-c3cncnc3N)n2)c1 [Compound 26]
- IC50 at 3 days [3]: 400 nM
- IC50 at 3 days [2]: 7000 nM

- IC50 [1]: 300 nM
SMILES: CC(=O)Nc1cccc(-c2csc(-c3cncnc3N)n2)c1 [Compound 61]
- IC50 at 3 days [2]: 40000 nM

- IC50 [1]: 300 nM
SMILES: COc1ccccc1C(=O)Nc1cccc(-c2csc(-c3cncnc3N)n2)c1 [Compound 25]
- IC50 at 3 days [2]: 10000 nM

- IC50 [1]: 30 nM
SMILES: COc1ccc(NC(=O)Nc2cccc(-c3csc(-c4cncnc4N)n3)c2)cc1 [Compound 14]
- IC50 at 3 days [3]: 300 nM
- IC50 at 3 days [2]: 20000 nM

- IC50 [1]: 30 nM
SMILES: Nc1ncncc1-c1nc(-c2cccc(NC(=O)c3ccc(F)cc3)c2)cs1 [Compound 5]
- IC50 at 3 days [2]: 30000 nM

- IC50 [1]: 500 nM
SMILES: Nc1ncncc1-c1nc(-c2cccc(NC(=O)c3cccnc3)c2)cs1 [Compound 23]
- IC50 at 3 days [2]: 10000 nM

Further lines, the compound ahead of its results:

SMILES: CCCCOC(=O)c1ccccc1NC(=O)Nc1cccc(-c2csc(-c3cncnc3N)n2)c1 [Compound 36]
- IC50 [1]: 300 nM
- IC50 at 3 days [2]: 10000 nM

SMILES: CCc1cccc(C)c1NC(=O)Nc1cccc(-c2csc(-c3cncnc3N)n2)c1 [Compound 38]
- IC50 [1]: 200 nM
- IC50 at 3 days [2]: > 50000 nM

SMILES: Nc1ncncc1-c1nc(-c2cccc(NC(=O)N3CCC(O)CC3)c2)cs1 [Compound 69]
- IC50 [1]: 400 nM
- IC50 at 3 days [2]: 4000 nM

SMILES: Nc1ncncc1-c1nc(-c2cccc(NC(=O)Nc3ccccc3C(F)(F)F)c2)cs1 [Compound 20]
- IC50 [1]: 50 nM
- IC50 at 3 days [3]: 700 nM
- IC50 at 3 days [2]: 50000 nM

SMILES: Nc1ncncc1-c1nc(-c2cccc(NC(=O)C3CCCCC3)c2)cs1 [Compound 62]
- IC50 [1]: 20 nM
- IC50 at 3 days [2]: > 50000 nM

SMILES: CCOC(=O)CNC(=O)Nc1cccc(-c2csc(-c3cncnc3N)n2)c1 [Compound 59]
- IC50 [1]: 300 nM
- IC50 at 3 days [2]: 30000 nM

SMILES: Nc1ncncc1-c1nc(-c2cccc(NC(=O)c3cccc(CN4CCOCC4)c3)c2)cs1 [Compound 52]
- IC50 [1]: 500 nM
- IC50 at 3 days [3]: 1000 nM
- IC50 at 3 days [2]: 4000 nM

SMILES: Nc1ncncc1-c1nc(-c2cccc(NC(=O)Nc3ccc(F)c(C(F)(F)F)c3)c2)cs1 [Compound 10]
- IC50 [1]: 20 nM
- IC50 at 3 days [3]: 500 nM
- IC50 at 3 days [2]: 2000 nM

SMILES: Nc1ncncc1-c1nc(-c2cccc(NC(=O)Nc3ccc4c(c3)OCO4)c2)cs1 [Compound 72]
- IC50 [1]: 60 nM
- IC50 at 3 days [3]: 300 nM
- IC50 at 3 days [2]: 2000 nM

SMILES: Nc1ncncc1-c1nc(-c2cccc(NC(=O)Nc3cccc(F)c3)c2)cs1 [Compound 12]
- IC50 [1]: 100 nM
- IC50 at 3 days [3]: 100 nM
- IC50 at 3 days [2]: 40000 nM

SMILES: Nc1ncncc1-c1nc(-c2cccc(NC(=O)Nc3cccc(C(F)(F)F)c3)c2)cs1 [Compound 39]
- IC50 [1]: 20 nM
- IC50 at 3 days [3]: 1000 nM
- IC50 at 3 days [2]: 2000 nM

SMILES: N#Cc1ccc(NC(=O)Nc2cccc(-c3csc(-c4cncnc4N)n3)c2)cc1 [Compound 29]
- IC50 [1]: 60 nM
- IC50 at 3 days [2]: > 50000 nM

SMILES: Nc1ncncc1-c1nc(-c2ccc(NC(=O)Nc3cccc(C(F)(F)F)c3)cc2)cs1 [Compound 1]
- IC50 at 3 days [3]: 900 nM
- IC50 at 3 days [2]: 4000 nM

SMILES: Nc1ncncc1-c1nc(-c2cccc(NC(=O)Nc3ccc(Cl)cc3)c2)cs1 [Compound 16]
- IC50 [1]: 4 nM
- IC50 at 3 days [3]: 1000 nM
- IC50 at 3 days [2]: 10000 nM

SMILES: Nc1ncncc1-c1nc(-c2cccc(NC(=O)c3ccc(-c4ccccc4)cc3)c2)cs1 [Compound 15]
- IC50 [1]: 400 nM
- IC50 at 3 days [3]: 1000 nM
- IC50 at 3 days [2]: 3000 nM

SMILES: CCOC(=O)c1cccc(NC(=O)Nc2cccc(-c3csc(-c4cncnc4N)n3)c2)c1 [Compound 42]
- IC50 [1]: 100 nM
- IC50 at 3 days [2]: 4000 nM

SMILES: Nc1ncncc1-c1nc(-c2cccc(NC(=O)Cc3cccc(C(F)(F)F)c3)c2)cs1 [Compound 40]
- IC50 [1]: 100 nM
- IC50 at 3 days [2]: 7000 nM

SMILES: Nc1ncncc1-c1nc(-c2cccc(NC(=O)c3ccncc3)c2)cs1 [Compound 24]
- IC50 at 3 days [2]: 30000 nM

SMILES: Nc1ncncc1-c1nc(-c2cccc(NC(=O)Nc3cccc(Cl)c3)c2)cs1 [Compound 31]
- IC50 [1]: 60 nM
- IC50 at 3 days [2]: 1000 nM

SMILES: N#Cc1cccc(NC(=O)Nc2cccc(-c3csc(-c4cncnc4N)n3)c2)c1 [Compound 30]
- IC50 [1]: 400 nM
- IC50 at 3 days [2]: > 50000 nM

SMILES: Nc1ncncc1-c1nc(-c2cccc(NC(=O)Nc3cccc(CO)c3)c2)cs1 [Compound 44]
- IC50 [1]: 30 nM
- IC50 at 3 days [2]: 30000 nM

SMILES: Nc1ncncc1-c1nc(-c2cccc(NC(=O)CN3CCCCC3)c2)cs1 [Compound 67]
- IC50 [1]: 300 nM
- IC50 at 3 days [2]: 10000 nM

SMILES: Nc1ncncc1-c1nc(-c2cccc(NC(=O)NC3CCCC3)c2)cs1 [Compound 63]
- IC50 [1]: 70 nM
- IC50 at 3 days [2]: 7000 nM

SMILES: CCNC(=O)Nc1cccc(-c2csc(-c3cncnc3N)n2)c1 [Compound 60]
- IC50 [1]: 80 nM
- IC50 at 3 days [2]: > 50000 nM

SMILES: Cc1nc(-c2cccc(NC(=O)Nc3cccc(-c4csc(-c5cncnc5N)n4)c3)c2)no1 [Compound 47]
- IC50 [1]: 90 nM
- IC50 at 3 days [2]: > 50000 nM

SMILES: CC(C)(O)c1cccc(NC(=O)Nc2cccc(-c3csc(-c4cncnc4N)n3)c2)c1 [Compound 43]
- IC50 [1]: 20 nM
- IC50 at 3 days [2]: 5000 nM

SMILES: Nc1ncncc1-c1nc(-c2cccc(NC(=O)N3CCCCC3)c2)cs1 [Compound 68]
- IC50 [1]: 200 nM
- IC50 at 3 days [2]: 20000 nM

SMILES: Nc1ncncc1-c1nc(-c2cccc(NC(=O)C3CCCC3)c2)cs1 [Compound 64]
- IC50 [1]: 300 nM
- IC50 at 3 days [2]: > 50000 nM

SMILES: Cc1ccc(NC(=O)Nc2cccc(-c3csc(-c4cncnc4N)n3)c2)cc1Cl [Compound 11]
- IC50 [1]: 10 nM
- IC50 at 3 days [2]: 3000 nM
